Data: ChEMBL document CHEMBL5550173, “Design, synthesis and biological evaluation of indoline-maleimide conjugates as potential antitumor agents for the treatment of colorectal cancer” (Bioorg Med Chem, 2024)
Activity calls are given as the source filed them. No cut-off for these calls is given here.

Columns and labels:
RKO [1] = assay: Induction of apoptosis in human RKO cells assessed as necrotic cells at 2.5 uM incubated for 48 hrs by Annexin V-PE and propidium iodide staining based flow cytometry analysis (reference value: 0.3%); assay type: functional
HCT-116 [2] = assay: Effect on cyclin D1 expression in human HCT-116 cells at 2.5 to 10 uM incubated for 48 hrs by Western blotting analysis; assay type: functional, cell-based; conditions: dose 2.5-10 µM
[3] = Acute toxicity in BALB/c mouse assessed as lung lesion at 50 to 100 mg/kg, ip measured every 2 days by H and E staining based assay; assay type: organism-based; conditions: in vivo, 48 h, dose 50-100 mg/kg
HCT-116 [4] = assay: Induction of cell cycle arrest in human HCT-116 cells assessed as decrease in S phase cells incubated for 48 hrs by propidium iodide staining based flow cytometry analysis; assay type: functional; conditions: dose 2.5-10 µM
RKO [5] = assay: Induction of apoptosis in human RKO cells assessed as late apoptotic cells at 10 uM incubated for 48 hrs by Annexin V-PE and propidium iodide staining based flow cytometry analysis (reference value: 0.3%); assay type: functional
[6] = Toxicity in BALB/c nude mouse assessed as changes in body weight at 5 to 10 mg/kg, ip administered every 2 days; assay type: organism-based; conditions: in vivo, 48 h, dose 5-10 mg/kg
HCT-116 [7] = assay: Induction of apoptosis in human HCT-116 cells assessed as necrotic cells at 10 uM incubated for 48 hrs by Annexin V-PE and propidium iodide staining based flow cytometry analysis (reference value: 1.3%); assay type: functional
HCT-116 [8] = assay: Induction of apoptosis in human HCT-116 cells assessed as late apoptotic cells at 10 uM incubated for 48 hrs by Annexin V-PE and propidium iodide staining based flow cytometry analysis (reference value: 0.5%); assay type: functional
HCT-116 [9] = assay: Induction of apoptosis in human HCT-116 cells assessed as upregulation of cleaved caspase-7 expression incubated for 48 hrs by Western blotting analysis; assay type: functional, cell-based; conditions: dose 2.5-10 µM
RKO [10] = assay: Induction of apoptosis in human RKO cells assessed as viable cells at 2.5 uM incubated for 48 hrs by Annexin V-PE and propidium iodide staining based flow cytometry analysis (reference value: 99.2%); assay type: functional; conditions: read-out: Activity
RKO [11] = assay: Induction of cell cycle arrest in human RKO cells assessed as upregulation of p21 expression at 2.5 to 10 uM incubated for 48 hrs by Western blotting analysis; assay type: functional, cell-based; conditions: dose 2.5-10 µM
HCT-116 [12] = assay: Antitumor activity against human HCT-116 cells xenografted in BALB/c mouse assessed as reduction in Ki67 protein expression at 5 to 10 mg/kg, ip measured every 2 days by immunohistochemistry analysis; assay type: functional, organism-based; conditions: dose 5-10 mg/kg
HCT-116 [13] = assay: Induction of apoptosis in human HCT-116 cells assessed as necrotic cells at 2.5 uM incubated for 48 hrs by Annexin V-PE and propidium iodide staining based flow cytometry analysis (reference value: 1.3%); assay type: functional
HCT-116 [14] = assay: Induction of apoptosis in human HCT-116 cells assessed as early apoptotic cells at 2.5 uM incubated for 48 hrs by Annexin V-PE and propidium iodide staining based flow cytometry analysis (reference value: 0.4%); assay type: functional
RKO [15] = assay: Induction of apoptosis in human RKO cells assessed as late apoptotic cells at 2.5 uM incubated for 48 hrs by Annexin V-PE and propidium iodide staining based flow cytometry analysis (reference value: 0.3%); assay type: functional
HCT-116 [16] = assay: Cytotoxicity against human HCT-116 cells at 5 uM incubated for 72 hrs by MTS assay; assay type: functional
HCT-116 [17] = assay: Cytotoxicity against human HCT-116 cells incubated for 72 hrs by MTS assay; assay type: functional, cell-based; conditions: HCT-116, 72 h
HCT-116 [18] = assay: Induction of apoptosis in human HCT-116 cells assessed as viable cells at 5 uM incubated for 48 hrs by Annexin V-PE and propidium iodide staining based flow cytometry analysis (reference value: 97.8%); assay type: functional; conditions: read-out: Activity
[19] = Cytotoxicity against human NCM460 cells incubated for 72 hrs by MTS assay; assay type: toxicity, cell-based
HCT-116 [20] = assay: Effect on CDK2 expression in human HCT-116 cells at 2.5 to 10 uM incubated for 48 hrs by Western blotting analysis; assay type: functional, cell-based; conditions: dose 2.5-10 µM
RKO [21] = assay: Induction of apoptosis in human RKO cells assessed as viable cells at 10 uM incubated for 48 hrs by Annexin V-PE and propidium iodide staining based flow cytometry analysis (reference value: 99.2%); assay type: functional; conditions: read-out: Activity
HCT-116 [22] = assay: Induction of apoptosis in human HCT-116 cells assessed as viable cells at 2.5 uM incubated for 48 hrs by Annexin V-PE and propidium iodide staining based flow cytometry analysis (reference value: 97.8%); assay type: functional; conditions: read-out: Activity
HCT-116 [23] = assay: Antitumor activity against human HCT-116 cells xenografted in BALB/c mouse assessed as reduction in tumor weight at 5 to 10 mg/kg, ip administered every 2 days; assay type: functional, organism-based; conditions: dose 5-10 mg/kg
HCT-116 [24] = assay: Inhibition of colony formation in human HCT-116 cells incubated for 10 days with every 3 days of media replacement by crystal violet staining based assay; assay type: functional, cell-based; conditions: dose 1-4 µM, time 10.0 day
HCT-116 [25] = assay: Induction of cell cycle arrest in human HCT-116 cells assessed as upregulation of p53 expression at 2.5 to 10 uM incubated for 48 hrs by Western blotting analysis; assay type: functional, cell-based; conditions: dose 2.5-10 µM
RKO [26] = assay: Induction of apoptosis in human RKO cells assessed as necrotic cells at 10 uM incubated for 48 hrs by Annexin V-PE and propidium iodide staining based flow cytometry analysis (reference value: 0.3%); assay type: functional
RKO [27] = assay: Cytotoxicity against human RKO cells incubated for 72 hrs by MTS assay; assay type: functional, cell-based
RKO [28] = assay: Effect on cyclin D1 expression in human RKO cells at 2.5 to 10 uM incubated for 48 hrs by Western blotting analysis; assay type: functional, cell-based; conditions: dose 2.5-10 µM
RKO [29] = assay: Inhibition of cell migration in human RKO cells at 2.5 to 10 uM measured upto 48 hrs by scratch wound healing assay; assay type: functional, cell-based; conditions: dose 2.5-10 µM
HCT-116 [30] = assay: Induction of apoptosis in human HCT-116 cells assessed as early apoptotic cells at 10 uM incubated for 48 hrs by Annexin V-PE and propidium iodide staining based flow cytometry analysis (reference value: 0.4%); assay type: functional
[31] = Acute toxicity in BALB/c mouse assessed as body weight loss at 50 to 100 mg/kg, ip measured every 2 days; assay type: organism-based; conditions: in vivo, 48 h, dose 50-100 mg/kg
HCT-116 [32] = assay: Antitumor activity against human HCT-116 cells xenografted in BALB/c mouse assessed as reduction in tumor volume at 5 to 10 mg/kg, ip measured every 2 days; assay type: functional, organism-based; conditions: dose 5-10 mg/kg
HCT-116 [33] = assay: Induction of apoptosis in human HCT-116 cells assessed as late apoptotic cells at 5 uM incubated for 48 hrs by Annexin V-PE and propidium iodide staining based flow cytometry analysis (reference value: 0.5%); assay type: functional
HT-29 = assay: Cytotoxicity against human HT-29 cells incubated for 72 hrs by MTS assay; assay type: functional, cell-based; conditions: HT-29, 72 h
HCT-116 [34] = assay: Antitumor activity against human HCT-116 cells xenografted in BALB/c mouse assessed as tumor growth suppression at 5 to 10 mg/kg, ip measured every 2 days; assay type: functional, organism-based; conditions: dose 5-10 mg/kg
HCT-116 [35] = assay: Inhibition of colony formation in human HCT-116 cells at 4 uM incubated for 10 days with every 3 days of media replacement by crystal violet staining based assay; assay type: functional; conditions: HCT-116, 240 h, time 10 day
RKO [36] = assay: Effect on CDK2 expression in human RKO cells at 2.5 to 10 uM incubated for 48 hrs by Western blotting analysis; assay type: functional, cell-based; conditions: dose 2.5-10 µM
RKO [37] = assay: Inhibition of colony formation in human RKO cells incubated about 10 days with every 3 days of media replacement by crystal violet staining based assay; assay type: functional, cell-based; conditions: dose 1-4 µM, time 10.0 day

C=C(C)C(=O)N1CCc2cccc(C3=CC(=O)N(C)C3=O)c21
Activity (RKO [1]): 0.1% | Activity (HCT-116 [2]): inactive | Activity [3]: Non-Toxic | Activity (HCT-116 [4]): Dose-Dependent Effect | Activity (RKO [5]): 1.1% | Activity [6]: Non-Toxic | Activity (HCT-116 [7]): 7.2% | Activity (HCT-116 [8]): 4.6% | Activity (HCT-116 [9]): Dose-Dependent Effect | viability at 2.5 µM (RKO [10]): 99% | Activity (RKO [11]): Active | Activity (HCT-116 [12]): Active | Activity (HCT-116 [13]): 1.8% | Activity (HCT-116 [14]): 0.7% | Activity (RKO [15]): 0.4% | Activity (HCT-116 [16]): 98.06% | IC50 (HCT-116 [17]): 1570 nM | viability at 5 µM (HCT-116 [18]): 93.6% | IC50 at 72 h [19]: 63700 nM | Activity (HCT-116 [20]): inactive | viability at 10 µM (RKO [21]): 93.4% | viability at 2.5 µM (HCT-116 [22]): 96.5% | Activity (HCT-116 [23]): Active | inhibition (HCT-116 [24]): Dose-Dependent Effect | Activity (HCT-116 [25]): Active | Activity (RKO [26]): 0.7% | IC50 (RKO [27]): 1100 nM | Activity (RKO [28]): inactive | inhibition (RKO [29]): Active | Activity (HCT-116 [30]): 5% | Activity [31]: Non-Toxic | Activity (HCT-116 [32]): Active | Activity (HCT-116 [33]): 1.7% | IC50 (HT-29): 1730 nM | Activity (HCT-116 [34]): Active | inhibition at 4 µM (HCT-116 [35]): 100% | Activity (RKO [36]): inactive | inhibition (RKO [37]): Dose-Dependent Effect
